Legend:
[1] = test system: THP-1; test: Anti-inflammatory activity in human THP1 cells assessed as inhibition of PMA-induced IL-1beta production after 48 hrs by ELISA; assay type: functional, cell-based; details: THP-1, 48 h
[2] = Cytotoxicity against human THP1 cells assessed as cell viability at 20 uM after 48 hrs by trypan blue dye exclusion assay; assay type: functional; details: THP-1, 48 h, read-out: Activity
[3] = test system: THP-1; test: Anti-inflammatory activity in human THP1 cells assessed as inhibition of PMA-induced MCP-1 production after 48 hrs by ELISA; assay type: functional, cell-based; details: THP-1, 48 h

Row | Structure (SMILES) | IC50 [1] [µM] | IC50 [3] [µM] | viability at 20 µM [2] [%]
1 | O=C(c1ccccc1)c1cc2c(nc1-c1ccccc1)-c1ccccc1CCC2 | 17.5 | > 20 | 99.4
2 | CCOC(=O)c1cc2c(nc1C)-c1ccccc1CCC2 | 6.9 | > 20 | 99.2
3 | CCOC(=O)c1cc2c(nc1-c1ccccc1)-c1cc(C)c(C)cc1CCC2 | 18.2 | 8.5 | 97.6
4 | Cc1cc2c(cc1C)-c1nc(-c3ccccc3)c(C(=O)c3ccccc3)cc1CCC2 | > 20 | > 20 | 101
5 | Cc1cc2c(cc1C)-c1nc3c(cc1CCC2)C(=O)CCC3 | > 20 | > 20 | 97.1
6 | CCOC(=O)c1cc2c(nc1C)-c1cc(C)c(C)cc1CCC2 | 6.5 | 8.5 | 95.9
7 | CCOC(=O)c1cc2c(nc1-c1ccccc1)-c1ccccc1CCC2 | > 20 | > 20 | 103
8 | CC1(C)CC(=O)c2cc3c(nc2C1)-c1ccccc1CCC3 | > 20 | 5.6 | 98.2

Now from value to molecule, other results behind:

Row | IC50 [1] [µM] | IC50 [3] [µM] | Structure (SMILES) | viability at 20 µM [2] [%]
9 | > 20 | > 20 | CC(=O)c1cc2c(nc1C)-c1ccccc1CCC2 | 92.3
10 | > 20 | 14.8 | CC(=O)c1cc2c(nc1C)-c1cc(C)c(C)cc1CCC2 | 97.6
11 | 8.6 | 16 | COC(=O)c1cc2c(nc1C)-c1cc(C)c(C)cc1CCC2 | 98.3
12 | > 20 | > 20 | Cc1cc2c(cc1C)-c1nc3c(cc1CCC2)C(=O)CC(C)(C)C3 | 105
13 | 8.2 | > 20 | COC(=O)c1cc2c(nc1C)-c1ccccc1CCC2 | 97.2
14 | > 20 | > 20 | O=C1CCCc2nc3c(cc21)CCCc1ccccc1-3 | 96.8
15 | 18.1 | – | CN1C(C(=O)Nc2ccccn2)=C(O)c2ccccc2S1(=O)=O [PIROXICAM] | 98.1
